Laboratory results from patent publication US20250281456A1, “METHODS OF TREATING CANCER BY INHIBITING BACTERIAL DNAK TO RESTORE ACTIVITIES OF ANTICANCER DRUGS” (University of Maryland, Baltimore, priority 2022, published 2025).
Where a SMILES comes first, the peptide text is derived from it. [ ]: non-standard residue; d: D form. Ac6c = NC1(C(=O)O)CCCCC1

What was measured:
[1] = target: eM-DnaK (Mycoplasma fermentans DnaK); assay: Surface plasmon resonance (SPR) binding of ARV-1502 to immobilized eM-DnaK; details: 2274.9 RU eM-DnaK on CM5 chip, HBS-EP, 25° C., preliminary kinetic analysis
Procedure: (§1) FIG. 17. A) Direct binding of eM-DnaK to ARV-1502 as determined by surface plasmon resonance (SPR). Association of ARV-1502 at different concentrations on 2274.9 response units of eM-DnaK immobilized on a CM5 biosensor chip proceeded at a flow rate of […] for 250 sec, followed by a 600 sec dissociation in HBS-EP.
Surface plasmon resonance (SPR) binding studies of DnaK and ARV-1502 were performed at 25° C. on a BIAcore T100 System (BIAcore, Inc., Piscataway, NY). We used as assay buffer HBS-EP, containing 10 mM HEPES, 150 mM NaCl, 0.05% surfactant P20, pH 7.4, 3 mM EDTA. DnaK (2274.9 RUs) was immobilized on CM5 sensor chips using the amine-coupling chemistry recommended by the manufacturer. Analytes were introduced into the flow cells at 35 μl/min in the running buffer. Association and dissociation were assessed for 250 seconds and 600 seconds. Resonance signals were corrected for nonspecific binding by subtracting the background of the control flow-cell. After each analysis, the sensor chip surfaces were regenerated with 10 mM glycine solution (pH 2.0) with MgCl 1M and equilibrated with the buffer before the next injection.

AGS cells = assay: cells
Procedure: (§2) FIG. 11. […] Parallel wells of untreated cells were used as negative control. Cell viability was assessed by using the trypan blue assay. Percentage of alive cells for each treatment are calculated as percentage using the untreated cell as reference. […] Statistical differences were tested using Student's t test. All statistical tests were two sided. p=***<0.001, **<0.01, *<0.05, ns=not significant.
as §2, with “14.” for “11.”, “p=*<0.05,” for “p=***<0.001,”, “***<0.001.” for “*<0.05, ns=not significant.”
(§3) To determine the effects of eM and eF-DnaKs on HCT116 and AGS cells lines treated with different anti-cancer drugs, cells were plated 200,000 cells/well in 6-wells plates. After 24 h, both eM-DnaK and eF-DnaK were added to the cultures at a concentration of 10 ug/ml. […] Parallel cultures of untreated cells were the negative controls. […] After 48 h of treatment with the anti-cancer drugs, cell monolayers were washed in PBS, trypsinized and cell viability was measured using the trypan blue assay. The trypan blue exclusion assay allows for a direct identification and enumeration of live (unstained) and dead (blue) cells in the given population.
(§4) More in detail, we pre-treated both exogenous DnaKs with ARV-1502 (25 μg/ml) before adding them to the culture of HCT116 or AGS cells. After 3 h of incubation the complex was added to the culture. After 24 h the cells were treated with the anti-cancer drugs and then subjected to count with trypan blue as previously described. Parallel cultures of cells treated with the drugs and DnaKs not complexed with ARV-1502 were used as control.

HCT116 cells [2] = assay: cells
Procedure: as §2
as §2, with “14.” for “11.”, “p=*<0.05,” for “p=***<0.001,”, “***<0.001.” for “*<0.05, ns=not significant.”
as §3, §4

HCT116 cells [3] = assay: Western blot of eM-DnaK entry into HCT116 cells after incubation with ARV-1502; type: cell-based, human; details: eM-DnaK incubated 3 hours with ARV-1502, added to cells 24 hours, then cisplatin 48 hours
Procedure: as §1
Western blot was performed to verify the expression of DnaK in the mouse primary cancer cells, in the internalization of the exogenous DnaKs and to validate DnaK binding with ARV-1502. […] After 72 h since eM-DnaK treatment, cell monolayers were washed in cold PBS, trypsinized and resuspended in RIPA lysis buffer (Sigma-Aldrich, St. Louis, MO) in the presence of protease inhibitors (Sigma-Aldrich, St. Louis, MO). The protein concentration was measured by the Bradford assay (Bio-Rad Laboratories, Hercules, CA). Thirty micrograms of protein were resolved by SDS/PAGE, transferred to a polyvinylidene difluoride (PVDF) membrane using trans-blot turbo transfer system (Bio-Rad Laboratories, Hercules, CA), blocked in 5% nonfat dried milk in Tris-Buffered Saline (TBS) and probed overnight with either a mouse mAb against the V5 tag (#R960-25, Thermo Fisher Scientific, Walthman, MA) to detect the presence of eM-DnaK or a mouse mAb against […] (8H10D10) (#3700, Cell Signaling Technology, Danvers, MA). […]

[4] = test system: primary murine cancer cells constitutively expressing DnaK
Escherichia coli DnaK = Escherichia coli DnaK (Escherichia coli, UniProt P0A6Y8); details: previously demonstrated; cited from earlier work
Sequence of Escherichia coli DnaK (P0A6Y8 whole entry): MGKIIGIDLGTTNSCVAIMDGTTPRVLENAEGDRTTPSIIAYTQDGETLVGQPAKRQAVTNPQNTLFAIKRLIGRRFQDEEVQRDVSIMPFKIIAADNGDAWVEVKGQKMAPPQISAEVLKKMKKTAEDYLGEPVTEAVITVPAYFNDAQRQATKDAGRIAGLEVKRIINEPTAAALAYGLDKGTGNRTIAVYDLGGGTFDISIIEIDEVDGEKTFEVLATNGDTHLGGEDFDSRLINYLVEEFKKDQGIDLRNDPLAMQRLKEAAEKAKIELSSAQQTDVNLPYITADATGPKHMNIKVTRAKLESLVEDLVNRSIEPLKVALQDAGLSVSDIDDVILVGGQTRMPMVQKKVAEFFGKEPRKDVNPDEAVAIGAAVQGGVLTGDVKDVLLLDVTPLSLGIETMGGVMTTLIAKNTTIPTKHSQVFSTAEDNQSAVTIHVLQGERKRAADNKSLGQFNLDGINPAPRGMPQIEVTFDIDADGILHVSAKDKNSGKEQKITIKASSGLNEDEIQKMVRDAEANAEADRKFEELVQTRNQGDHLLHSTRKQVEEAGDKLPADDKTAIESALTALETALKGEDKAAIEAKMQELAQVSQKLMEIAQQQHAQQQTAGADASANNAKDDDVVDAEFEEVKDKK

human Hsp70 = human Hsp70 (Homo sapiens, UniProt P0DMV8); details: previously demonstrated; cited from earlier work
Sequence of human Hsp70 (P0DMV8 whole entry): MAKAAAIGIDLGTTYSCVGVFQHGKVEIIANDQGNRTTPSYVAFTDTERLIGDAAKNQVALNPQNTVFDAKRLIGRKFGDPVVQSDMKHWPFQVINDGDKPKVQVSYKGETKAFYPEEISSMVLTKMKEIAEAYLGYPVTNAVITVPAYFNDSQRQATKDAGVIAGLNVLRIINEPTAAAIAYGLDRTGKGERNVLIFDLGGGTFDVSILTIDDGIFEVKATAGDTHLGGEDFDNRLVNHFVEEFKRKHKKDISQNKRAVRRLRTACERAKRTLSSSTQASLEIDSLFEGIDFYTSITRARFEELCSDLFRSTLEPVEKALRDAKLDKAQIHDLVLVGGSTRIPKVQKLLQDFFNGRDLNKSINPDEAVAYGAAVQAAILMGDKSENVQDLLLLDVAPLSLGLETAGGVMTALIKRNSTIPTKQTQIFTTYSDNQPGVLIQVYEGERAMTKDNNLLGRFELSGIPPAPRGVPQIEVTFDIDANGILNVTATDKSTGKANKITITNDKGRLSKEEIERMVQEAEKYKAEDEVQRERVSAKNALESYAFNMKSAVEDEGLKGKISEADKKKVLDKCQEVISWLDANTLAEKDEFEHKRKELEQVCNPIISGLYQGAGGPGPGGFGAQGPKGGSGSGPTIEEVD

## CC(C)C[C@H](NC(=O)[C@H](Cc1ccc(O)cc1)NC(=O)[C@@H]1CCCN1C(=O)[C@H](CCCNC(=N)N)NC(=O)[C@@H]1CCCN1C(=O)[C@H](CCCCN)NC(=O)[C@H](CC(=O)O)NC(=O)[C@@H]1CCCN1C(=O)[C@H](CCCNC(=N)N)NC(=O)C1(N)CCCCC1)C(=O)N1CCC[C@H]1C(=O)N[C@@H](CCCNC(=N)N)C(=O)N1CCC[C@H]1C(=O)N[C@@H](CCCNC(=N)N)C(=O)N1CCC[C@H]1C(=O)N1CCC[C@H]1C(=O)N[C@@H](CCCNC(=N)N)C(=O)N1CCC[C@H]1C(=O)N[C@H](C(=O)N[C@@H](CCCNC(=N)N)C(N)=O)C(C)C [ARV-1502] (H-[Ac6c]RPDKPRPYLPRPRPPRPVR-NH2; N-terminus and C-terminus assumed)
[1]
  Kd: 1900 nM
AGS cells; ARV-1502 alone, on average (data not shown)
  reduction in cell viability: 5-8%
AGS cells; in the presence of eF-DnaK pre-treated with ARV-1502 (25 μg/ml)
  restoration of anti-cancer activity of cisplatin and 5FU: able to restore the drugs' anti-cancer activity
AGS cells; in the presence of eM-DnaK pre-treated with ARV-1502 (25 μg/ml)
  restoration of anti-cancer activity of cisplatin and 5FU: restoration of the original anti-cancer activity of each drug
HCT116 cells [2]; HCT116, ARV-1502 alone, on average (data not shown)
  reduction in cell viability: 5-8%
HCT116 cells [2]; HCT116, in the presence of eF-DnaK pre-treated with ARV-1502 (25 μg/ml)
  restoration of anti-cancer activity of cisplatin and 5FU: able to restore the drugs' anti-cancer activity
HCT116 cells [2]; HCT116, in the presence of eM-DnaK pre-treated with ARV-1502 (25 μg/ml)
  restoration of anti-cancer activity of cisplatin and 5FU: restoration of the original anti-cancer activity of each drug
HCT116 cells [3]
  eM-DnaK entry into HCT116 cells: does not prevent eM-DnaK entry into HCT116 cells
[4]; ARV-1502 alone
  inhibitory effect: 11%
[4]; ARV-1502 with cisplatin or 5FU versus drug alone, for both drugs
  improved anti-cancer effect: 25%
Escherichia coli DnaK
  DnaK binding and ATPase activity: bind the Escherichia coli DnaK substrate-binding domain and to reduce its ATPase activity
Human Hsp70
  interaction with human Hsp70: without interacting with human Hsp70
